Among the data in US20240425490A1, “SULFAMIDE RIBONUCLEOTIDE REDUCTASE (RNR) INHIBITORS AND USES THEREOF” (Boundless Bio, Inc., priority 2021, published 2024) are IC50 values, retold here.

Each structure is given as a SMILES string. pIC50: −log10 of the molar value.

The experiment addresses T1, RNR (RNR1:RNR2 1:1) (Homo sapiens, UniProt P23921).
T1 sequence (P23921 1-792): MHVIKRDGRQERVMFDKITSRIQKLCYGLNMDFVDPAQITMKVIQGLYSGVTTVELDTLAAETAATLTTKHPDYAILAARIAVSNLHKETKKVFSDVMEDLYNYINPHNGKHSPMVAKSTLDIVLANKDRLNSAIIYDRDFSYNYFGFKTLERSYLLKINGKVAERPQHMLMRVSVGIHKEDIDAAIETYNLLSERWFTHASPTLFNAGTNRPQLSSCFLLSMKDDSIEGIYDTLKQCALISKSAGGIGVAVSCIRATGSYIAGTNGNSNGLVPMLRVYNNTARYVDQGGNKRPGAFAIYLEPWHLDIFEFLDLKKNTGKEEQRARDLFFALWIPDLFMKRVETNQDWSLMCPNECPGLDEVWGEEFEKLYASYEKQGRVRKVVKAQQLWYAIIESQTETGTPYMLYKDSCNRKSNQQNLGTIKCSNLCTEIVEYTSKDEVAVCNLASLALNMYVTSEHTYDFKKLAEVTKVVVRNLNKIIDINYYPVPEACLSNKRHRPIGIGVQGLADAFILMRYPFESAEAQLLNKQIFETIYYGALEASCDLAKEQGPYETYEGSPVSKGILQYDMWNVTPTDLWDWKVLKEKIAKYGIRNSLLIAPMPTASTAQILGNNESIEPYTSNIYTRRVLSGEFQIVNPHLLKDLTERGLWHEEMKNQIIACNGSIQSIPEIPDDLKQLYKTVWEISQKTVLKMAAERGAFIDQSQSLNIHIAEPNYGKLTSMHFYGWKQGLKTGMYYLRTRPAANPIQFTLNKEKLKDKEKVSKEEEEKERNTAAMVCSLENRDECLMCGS
In words: RNR enzyme activity, rapid-fire mass spectrometry (RFMS) assay. The settings on record: RNR 50 nM, CDP 5 μM, ATP 1 mM, 37° C., 45 min, compounds screened up to 50 μM, read-out: RF/MS IC50. The experiment is classed as biochemical. Summed up:
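Human RNR1:RNR2 (1:1, 50 nM) pre-incubated 15 min at room temperature with compound, then reacted with 5 μM CDP and 1 mM ATP, no NADPH, for 45 min at 37 °C. Stopped with 6% HCOOH; turnover read by rapid-fire mass spectrometry; Triapine and hydroxyurea as reference compounds.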
Regarding `Cc1ccc(F)c([C@@H](C)[C@H](NS(=O)(=O)N2CCc3ccccc3C2)c2n[nH]c(=O)o2)c1C` [Example 135, N-((1S,2R)-2-(6-fluoro-2,3-dimethylphenyl)-1-(5-oxo-4,5-dihydro-1,3,4-oxadiazol-2-yl)propyl)-3,4-dihydroisoquinoline-2(1H)-sulfonamide], the pIC50 is 6.00 to 7.00.

Turning to `Cc1ccc(F)c(C(C)[C@H](NS(=O)(=O)N2CCC3(CC2)COC(=O)O3)c2n[nH]c(=O)o2)c1C` (stereo partly drawn) [Example 67, N-((1S)-2-(6-fluoro-2,3-dimethylphenyl)-1-(5-oxo-4,5-dihydro-1,3,4-oxadiazol-2-yl)propyl)-2-oxo-1,3-dioxa-8-azaspiro[4.5]decane-8-sulfonamide], the pIC50 was 4.00 to 5.00.

Turning to `Cc1ccc(F)c(C(C)[C@H](NS(=O)(=O)N2CCC(n3cccn3)CC2)c2n[nH]c(=O)o2)c1C` (stereo partly drawn) [Example 96, N-((1S)-2-(6-fluoro-2,3-dimethylphenyl)-1-(5-oxo-4,5-dihydro-1,3,4-oxadiazol-2-yl)propyl)-4-(1H-pyrazol-1-yl)piperidine-1-sulfonamide], the pIC50 was 5.00 to 6.00.

As for `Cc1ccc(F)c(C(C)[C@H](NS(=O)(=O)N2CCCCC2C#N)c2n[nH]c(=O)o2)c1C` (stereo partly drawn) [Example 3, 2-cyano-N-[(1S)-2-(6-fluoro-2,3-dimethylphenyl)-1-(5-oxo-4H-1,3,4-oxadiazol-2-yl)propyl]piperidine-1-sulfonamide], the pIC50 is 5.00 to 6.00.

In the case of `Cc1ccc(F)c(C(C)[C@H](NS(=O)(=O)N2CCC(C(C)O)CC2)c2n[nH]c(=O)o2)c1C` (stereo partly drawn) [Example 32, N-((1S)-2-(6-fluoro-2,3-dimethylphenyl)-1-(5-oxo-4,5-dihydro-1,3,4-oxadiazol-2-yl)propyl)-4-(1-hydroxyethyl)piperidine-1-sulfonamide], the pIC50 is 5.00 to 6.00.

In the case of `Cc1ccc(F)c([C@H](C)[C@H](NS(=O)(=O)N2CCC(C)(C)CC2)c2n[nH]c(=O)o2)c1C` [Example 114, N-((1S,2S)-2-(6-fluoro-2,3-dimethylphenyl)-1-(5-oxo-4,5-dihydro-1,3,4-oxadiazol-2-yl)propyl)-4,4-dimethylpiperidine-1-sulfonamide], the pIC50 was 5.00 to 6.00.

Take `Cc1ccc(F)c(C(C)[C@H](NS(=O)(=O)N2CCC(CN(C)C)CC2)c2n[nH]c(=O)o2)c1C` (stereo partly drawn) [Example 31, 4-((dimethylamino)methyl)-N-((1S)-2-(6-fluoro-2,3-dimethylphenyl)-1-(5-oxo-4,5-dihydro-1,3,4-oxadiazol-2-yl)propyl)piperidine-1-sulfonamide]: the pIC50 is 4.00 to 5.00.

For `Cc1ccc(F)c(C(C)[C@H](NS(=O)(=O)N2CCC(c3noc4ccc(F)cc34)CC2)c2n[nH]c(=O)o2)c1C` (stereo partly drawn) [Example 74, N-((1S)-2-(6-fluoro-2,3-dimethylphenyl)-1-(5-oxo-4,5-dihydro-1,3,4-oxadiazol-2-yl)propyl)-4-(5-fluorobenzo[d]isoxazol-3-yl)piperidine-1-sulfonamide], the pIC50 was 6.00 to 7.00.

`Cc1ccc(F)c([C@H](C)[C@H](NS(=O)(=O)N2CCCCC2CC(N)=O)c2n[nH]c(=O)o2)c1C` (stereo partly drawn) [Example 16, 2-(1-(N-((1S,2S)-2-(6-fluoro-2,3-dimethylphenyl)-1-(5-oxo-4,5-dihydro-1,3,4-oxadiazol-2-yl)propyl)sulfamoyl)piperidin-2-yl)acetamide]: the pIC50 is 5.00 to 6.00.

`Cc1ccc(F)c(C(C)[C@H](NS(=O)(=O)N2CCC(C(=O)N(C)C)CC2)c2n[nH]c(=O)o2)c1C` (stereo partly drawn) [Example 64, 1-(N-((1S)-2-(6-fluoro-2,3-dimethylphenyl)-1-(5-oxo-4,5-dihydro-1,3,4-oxadiazol-2-yl)propyl)sulfamoyl)-N,N-dimethylpiperidine-4-carboxamide]: the pIC50 was 5.00 to 6.00.

For `Cc1ccc(F)c([C@H](C)[C@H](NS(=O)(=O)N2CCC(Cl)(Cl)CC2)c2n[nH]c(=O)o2)c1C` [Example 98, 4,4-dichloro-N-((1S,2S)-2-(6-fluoro-2,3-dimethylphenyl)-1-(5-oxo-4,5-dihydro-1,3,4-oxadiazol-2-yl)propyl)piperidine-1-sulfonamide], the pIC50 is 5.00 to 6.00.

`Cc1ccc(F)c([C@@H](C)[C@H](NS(=O)(=O)N2CCC3(CC2)CC(=O)N(C)C3)c2n[nH]c(=O)o2)c1C` [Example 76, N-((1S,2R)-2-(6-fluoro-2,3-dimethylphenyl)-1-(5-oxo-4,5-dihydro-1,3,4-oxadiazol-2-yl)propyl)-2-methyl-3-oxo-2,8-diazaspiro[4.5]decane-8-sulfonamide]: the pIC50 was 6.00 to 7.00.

On to `Cc1ccc(F)c(C(C)[C@H](NS(=O)(=O)N2CCC(F)(F)CC2C)c2n[nH]c(=O)o2)c1C` (stereo partly drawn) [Example 111, 4,4-difluoro-N-((1S)-2-(6-fluoro-2,3-dimethylphenyl)-1-(5-oxo-4,5-dihydro-1,3,4-oxadiazol-2-yl)propyl)-2-methylpiperidine-1-sulfonamide], for which the pIC50 was 6.00 to 7.00.

Take `Cc1ccc(F)c(C(C)[C@H](NS(=O)(=O)N2CCC(C(F)(F)F)CC2)c2n[nH]c(=O)o2)c1C` (stereo partly drawn) [Example 33, N-((1S)-2-(6-fluoro-2,3-dimethylphenyl)-1-(5-oxo-4,5-dihydro-1,3,4-oxadiazol-2-yl)propyl)-4-(trifluoromethyl)piperidine-1-sulfonamide]: the pIC50 was 5.00 to 6.00.

As for `CNC(=O)CC1CCN(S(=O)(=O)N[C@H](c2n[nH]c(=O)o2)C(C)c2c(F)ccc(C)c2C)CC1` (stereo partly drawn) [Example 66, 2-(1-(N-((1S)-2-(6-fluoro-2,3-dimethylphenyl)-1-(5-oxo-4,5-dihydro-1,3,4-oxadiazol-2-yl)propyl)sulfamoyl)piperidin-4-yl)-N-methylacetamide], the pIC50 was 4.00 to 5.00.

As to `Cc1ccc(F)c([C@@H](C)[C@H](NS(=O)(=O)N2CCC(C3CCCCC3)CC2)c2n[nH]c(=O)o2)c1C` [Example 9, 4-cyclohexyl-N-((1S,2R)-2-(6-fluoro-2,3-dimethylphenyl)-1-(5-oxo-4,5-dihydro-1,3,4-oxadiazol-2-yl)propyl)piperidine-1-sulfonamide], the pIC50 was 4.00 to 5.00.

In the case of `Cc1ccc(F)c([C@@H](C)[C@H](NS(=O)(=O)N2CCCCC2c2ccccc2)c2n[nH]c(=O)o2)c1C` (stereo partly drawn) [Example 35, N-((1S,2R)-2-(6-fluoro-2,3-dimethylphenyl)-1-(5-oxo-4,5-dihydro-1,3,4-oxadiazol-2-yl)propyl)-2-phenylpiperidine-1-sulfonamide], the pIC50 was 5.00 to 6.00.

Take `Cc1ccc(F)c([C@H](C)[C@H](NS(=O)(=O)N2CCC3(CC2)CC(=O)N(C)C3)c2n[nH]c(=O)o2)c1C` [Example 77, N-((1S,2S)-2-(6-fluoro-2,3-dimethylphenyl)-1-(5-oxo-4,5-dihydro-1,3,4-oxadiazol-2-yl)propyl)-2-methyl-3-oxo-2,8-diazaspiro[4.5]decane-8-sulfonamide]: the pIC50 is 4.00 to 5.00.

`CCN(CC1CC1)S(=O)(=O)N[C@H](c1n[nH]c(=O)o1)[C@@H](C)c1c(F)ccc(C)c1C` [Example 120]: the pIC50 is 4.00 to 5.00.

Consider `COCC1CCCN(S(=O)(=O)N[C@H](c2n[nH]c(=O)o2)[C@H](C)c2c(F)ccc(C)c2C)C1` (stereo partly drawn) [Example 129, N-((1S,2R)-2-(6-fluoro-2,3-dimethylphenyl)-1-(5-oxo-4,5-dihydro-1,3,4-oxadiazol-2-yl)propyl)-3-(methoxymethyl)piperidine-1-sulfonamide], for which the pIC50 is 5.00 to 6.00.

`Cc1ccc(F)c([C@H](C)[C@H](NS(=O)(=O)N2CCCCC2c2ccccc2)c2n[nH]c(=O)o2)c1C` (stereo partly drawn) [Example 36, N-((1S,2S)-2-(6-fluoro-2,3-dimethylphenyl)-1-(5-oxo-4,5-dihydro-1,3,4-oxadiazol-2-yl)propyl)-2-phenylpiperidine-1-sulfonamide]: the pIC50 was 4.00 to 5.00.

For the molecule `Cc1ccc(F)c([C@H](C)[C@H](NS(=O)(=O)N2CCCCC2C(=O)O)c2n[nH]c(=O)o2)c1C` (stereo partly drawn) [Example 14, 1-(N-((1S,2S)-2-(6-fluoro-2,3-dimethylphenyl)-1-(5-oxo-4,5-dihydro-1,3,4-oxadiazol-2-yl)propyl)sulfamoyl)piperidine-2-carboxylic acid], the pIC50 is 4.00 to 5.00.

`Cc1ccc(F)c([C@@H](C)[C@H](NS(=O)(=O)N2CCC3(CC2)OCCO3)c2n[nH]c(=O)o2)c1C` [Example 133, N-((1S,2R)-2-(6-fluoro-2,3-dimethylphenyl)-1-(5-oxo-4,5-dihydro-1,3,4-oxadiazol-2-yl)propyl)-1,4-dioxa-8-azaspiro[4.5]decane-8-sulfonamide]: the pIC50 was 4.00 to 5.00.

As for `Cc1ccc(F)c(C(C)[C@H](NS(=O)(=O)N2CCC(c3ccccc3)CC2)c2n[nH]c(=O)o2)c1C` (stereo partly drawn) [Example 34, N-((1S)-2-(6-fluoro-2,3-dimethylphenyl)-1-(5-oxo-4,5-dihydro-1,3,4-oxadiazol-2-yl)propyl)-4-phenylpiperidine-1-sulfonamide], the pIC50 was 5.00 to 6.00.
